{"source": "ChEMBL document CHEMBL5331124", "about": "“Degradation of Hexokinase 2 Blocks Glycolysis and Induces GSDME-Dependent Pyroptosis to Amplify Immunogenic Cell Death for Breast Cancer Therapy” (J Med Chem, 2023)", "key": {"4T1 [1]": {"tested_on": "4T1", "test": "Induction of pyroptosis in mouse 4T1 cells assessed as early apoptotic cells at 20 uM incubated for 36 hrs by annexin V-FITC staining based flow cytometry analysis (reference value: 4.76 %)", "type": "functional"}, "4T1 [2]": {"tested_on": "4T1", "test": "Antitumor immunity against mouse 4T1 cells implanted in BALB/c mouse model assessed as increase in cleaved caspase-3 expression in tumor", "type": "functional, cell-based"}, "[3]": {"test": "Toxicity in BALB/c nude mouse xenografted with human MDA-MB-231 cells assessed as effect on red blood cells at 50 mg/kg, ip measured after 30 days by routine blood test", "type": "organism-based", "settings": "in vivo, 720 h, time 30 day"}, "[4]": {"test": "Toxicity in BALB/c mouse implanted with mouse 4T1 cells assessed as effect on mean corpuscular hemoglobin at 50 mg/kg, ip measured after 25 days by routine blood test", "type": "organism-based", "settings": "in vivo, 600 h, time 25 day"}, "MDA-MB-231 [5]": {"tested_on": "MDA-MB-231", "test": "Antitumor activity against human MDA-MB-231 cells xenografted in BALB/c nude mouse assessed as reduction in tumor growth at 50 mg/kg, ip measured after 28 days", "type": "functional, organism-based", "settings": "time 28.0 day"}, "[6]": {"test": "Toxicity in BALB/c nude mouse xenografted with human MDA-MB-231 cells assessed as effect on mean corpuscular hemoglobin concentration at 50 mg/kg, ip measured after 30 days by routine blood test", "type": "organism-based", "settings": "in vivo, 720 h, time 30 day"}, "4T1 [7]": {"tested_on": "4T1", "test": "Induction of mitochondrial damage in mouse 4T1 cells at 20 uM measured for 36 hrs by Hoechst 33342 staining based confocal fluorescence microscopic analysis", "type": "functional, cell-based"}, "[8]": {"target": "Protein cereblon/Hexokinase-2 (Mus musculus) (UniProt O08528+Q8C7D2)", "sequence (Q8C7D2 whole entry, looked up, one chain of several)": "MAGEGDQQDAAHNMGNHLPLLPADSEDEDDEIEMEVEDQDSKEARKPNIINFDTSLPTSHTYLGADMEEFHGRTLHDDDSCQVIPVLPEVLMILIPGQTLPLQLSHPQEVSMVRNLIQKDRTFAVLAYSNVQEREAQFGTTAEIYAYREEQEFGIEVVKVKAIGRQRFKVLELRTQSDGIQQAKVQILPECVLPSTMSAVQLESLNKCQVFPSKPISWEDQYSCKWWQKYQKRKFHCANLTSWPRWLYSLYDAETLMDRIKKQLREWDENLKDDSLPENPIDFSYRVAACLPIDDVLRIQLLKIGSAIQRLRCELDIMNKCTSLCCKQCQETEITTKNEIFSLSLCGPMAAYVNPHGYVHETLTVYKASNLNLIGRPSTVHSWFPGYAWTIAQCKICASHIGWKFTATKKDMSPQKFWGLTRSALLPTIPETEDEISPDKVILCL", "test": "PROTAC activity at CRBN/HK2 in mouse 4T1 cells assessed as […] ternary complex formation at 10 uM incubated for 24 hrs in presence of MG132", "type": "cell-based"}, "4T1 [9]": {"tested_on": "4T1", "test": "Antitumor immunity against mouse 4T1 cells implanted in BALB/c mouse model assessed as increase in HMGB1 release in tumor", "type": "functional, cell-based"}, "[10]": {"target": "T1, Hexokinase-2 (Mus musculus) (UniProt O08528)", "T1 sequence (whole entry)": "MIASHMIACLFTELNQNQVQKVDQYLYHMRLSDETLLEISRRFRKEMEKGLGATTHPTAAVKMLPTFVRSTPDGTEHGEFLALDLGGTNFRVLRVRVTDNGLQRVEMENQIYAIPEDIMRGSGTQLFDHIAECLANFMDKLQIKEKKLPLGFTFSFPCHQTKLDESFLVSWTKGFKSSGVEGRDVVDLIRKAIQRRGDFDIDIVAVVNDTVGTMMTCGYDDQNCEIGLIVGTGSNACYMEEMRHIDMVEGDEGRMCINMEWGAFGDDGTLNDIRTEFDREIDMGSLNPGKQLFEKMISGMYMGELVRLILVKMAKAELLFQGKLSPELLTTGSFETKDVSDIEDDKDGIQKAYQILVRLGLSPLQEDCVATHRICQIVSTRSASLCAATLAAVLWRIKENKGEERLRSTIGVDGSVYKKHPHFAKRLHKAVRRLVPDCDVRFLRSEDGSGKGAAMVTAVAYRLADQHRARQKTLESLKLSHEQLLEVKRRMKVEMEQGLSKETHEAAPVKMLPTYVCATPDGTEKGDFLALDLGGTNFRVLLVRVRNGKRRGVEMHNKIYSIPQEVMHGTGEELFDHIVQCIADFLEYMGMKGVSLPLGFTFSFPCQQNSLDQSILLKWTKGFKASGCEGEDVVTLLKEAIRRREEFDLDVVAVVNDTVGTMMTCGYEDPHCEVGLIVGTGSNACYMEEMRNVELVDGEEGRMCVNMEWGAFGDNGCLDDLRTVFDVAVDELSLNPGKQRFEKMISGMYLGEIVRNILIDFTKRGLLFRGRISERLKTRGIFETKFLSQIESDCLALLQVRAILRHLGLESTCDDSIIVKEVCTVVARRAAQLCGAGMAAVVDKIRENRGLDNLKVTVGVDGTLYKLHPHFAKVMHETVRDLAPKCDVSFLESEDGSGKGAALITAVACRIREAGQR", "test": "Induction of HK2 degradation in mouse 4T1 cells at 20 uM measured upto 18 hrs by Western blot analysis", "type": "cell-based"}, "4T1 [11]": {"tested_on": "4T1", "test": "Induction of mitochondrial damage in mouse 4T1 cells assessed as reduction in lactic acid production at 20 uM measured for 36 hrs", "type": "functional, cell-based"}, "4T1 [12]": {"tested_on": "4T1", "test": "Upregulation of PD-L1 expression in mouse 4T1 cells cytoplasm at 20 uM measured for 36 hrs", "type": "functional, subcellular"}, "[13]": {"test": "Toxicity in BALB/c nude mouse xenografted with human MDA-MB-231 cells assessed as effect on hemoglobin level at 50 mg/kg, ip measured after 30 days by routine blood test", "type": "organism-based", "settings": "in vivo, 720 h, time 30 day"}, "4T1 [14]": {"tested_on": "4T1", "test": "Antitumor activity against mouse 4T1 cells implanted in BALB/c mouse model assessed as reduction in HK2 expression level at 50 mg/kg, ip measured after 25 days by Western blot analysis", "type": "functional, organism-based", "settings": "time 25.0 day"}, "[15]": {"test": "Toxicity in BALB/c nude mouse xenografted with human MDA-MB-231 cells assessed as effect on platelet count at 50 mg/kg, ip measured after 30 days by routine blood test", "type": "organism-based", "settings": "in vivo, 720 h, time 30 day"}, "[16]": {"target": "T1, Hexokinase-2 (Mus musculus)", "test": "(§1) Induction of HK2 degradation in mouse 4T1 cells measured for 36 hrs", "type": "cell-based"}, "Hexokinase-2": {"target": "T2, Hexokinase-2 (Mus musculus, UniProt O08528)", "T2 sequence (O08528 whole entry)": "T1 sequence (whole entry)", "test": "as §1", "type": "cell-based"}, "4T1 [17]": {"tested_on": "4T1", "test": "Potency index, ratio of IC50 for lonidamine to test compound IC50 for mouse 4T1 cells assessed as cell growth inhibition measured for 72 hrs by MTT assay", "type": "functional"}, "MDA-MB-231 [18]": {"tested_on": "MDA-MB-231", "test": "Induction of pyroptosis in human MDA-MB-231 cells assessed as increase in N-terminal GSDME level at 20 uM incubated for 36 hrs by Western blot analysis", "type": "functional, cell-based"}, "4T1 [19]": {"tested_on": "4T1", "test": "Antitumor immunity activity against mouse 4T1 cells implanted in BALB/c mouse assessed as increase in proportion of […] positive T cells in tumor by flow cytometry analysis", "type": "functional, cell-based"}, "4T1 [20]": {"tested_on": "4T1", "test": "Antiproliferative activity against mouse 4T1 cells expressing SiHK2 assessed as cell growth inhibition measured for 72 hrs by MTT assay", "type": "functional, cell-based"}, "4T1 [21]": {"tested_on": "4T1", "test": "Antitumor immunity against mouse 4T1 cells implanted in BALB/c mouse model assessed as increase in LDH release in cell supernatant at 20 uM measured for 36 hrs by ELISA analysis", "type": "functional, cell-based"}}, "note": "Calls of active or inactive are those of the source. The rule behind the calls is not given here.", "data": [{"smiles": "O=C1CCC(N2C(=O)c3cccc(NCCCCNC(=O)c4nn(Cc5ccc(Cl)cc5Cl)c5ccccc45)c3C2=O)C(=O)N1", "note": "(configuration not stated)", "values": [{"measurement": "Activity", "setting": "4T1 [1]", "result": 9.85, "unit": "%"}, {"measurement": "Activity", "setting": "4T1 [2]", "result": "Active"}, {"measurement": "Activity", "setting": "[3]", "result": "Non-Toxic"}, {"measurement": "Activity", "setting": "[4]", "result": "Non-Toxic"}, {"measurement": "Activity", "setting": "MDA-MB-231 [5]", "result": "Active"}, {"measurement": "Activity", "setting": "[6]", "result": "Non-Toxic"}, {"measurement": "Activity", "setting": "4T1 [7]", "result": "Active"}, {"measurement": "Activity", "setting": "[8]", "result": "inactive"}, {"measurement": "Activity", "setting": "4T1 [9]", "result": "Active"}, {"measurement": "Activity", "setting": "[10]", "result": "Active"}, {"measurement": "Activity", "setting": "4T1 [11]", "result": "Active"}, {"measurement": "Activity", "setting": "4T1 [12]", "result": "Active"}, {"measurement": "Activity", "setting": "[13]", "result": "Non-Toxic"}, {"measurement": "Activity", "setting": "4T1 [14]", "result": "Active"}, {"measurement": "Activity", "setting": "[15]", "result": "Non-Toxic"}, {"measurement": "Activity", "setting": "[16]", "result": "Dose-Dependent Effect"}, {"measurement": "DC50", "setting": "Hexokinase-2", "result": 2560, "unit": "nM"}, {"measurement": "Ratio IC50", "setting": "4T1 [17]", "result": 30.1}, {"measurement": "Activity", "setting": "MDA-MB-231 [18]", "result": "Active"}, {"measurement": "Activity", "setting": "4T1 [19]", "result": "Active"}, {"measurement": "Activity", "setting": "4T1 [20]", "result": "inactive"}, {"measurement": "Activity", "setting": "4T1 [21]", "result": "Active"}]}]}
